From patent US20060276394A1, “METHODS AND COMPOSITIONS FOR TREATING NEUROLOGICAL DISORDERS” (WYETH, priority 2002, published 2006)
“Also recorded” adds a separate entry of the source.

Assays:
Balb/C mice = experiment: mouse elevated zero maze (EZM); type: in vivo
Method: (§1) To assess the anxiolytic activity of NBI-31772, mice receiving intraventricular administration of NBI-31772 were tested in an elevated zero maze (EZM) or in a four-plate appratus (FPT). NBI-31722 (availabe from Calbiochem/EMD Biosciences, Inc. of San Diego, Calif.) was administered in a volume of 2 μl. Balb/C mice were used for the elevated zero maze and Swiss-Webster mice were used for the four-plate test. One-way analysis of variance (ANOVA) was performed on behavioral data to determine effects of test compound treatments, followed by Least Significant Difference Tests for a post hoc analysis. Data is presented as the mean±SEM.
These effects are similar to those seen with reference anxiolytic compounds chlordiazepoxide and diazepam (Ring et al., Psychopharmacology (Berl.), 2006, 185(2):218-225) and are indicative of anxiolytic-like activity of NBI-31772 in the EZM.

Swiss-Webster mice [1] = experiment: mouse four-plate test (FPT), punished crossings; type: in vivo
Method: as §1
The four-plate apparatus consists of a Plexiglas chamber (18×25×16 cm) with a floor consisting of four rectangular metal plates (8×11 cm), which are separated from one another by a 4 mm gap. All four plates are wired to a shock generator (0.8 mA, 0.5 second; Med Associates Inc. of St. Albans, Vt.). In each experiment, mice are placed into the chamber and given an 18-second habituation period followed by a 1-minute test. During the test, the animal's innate motivation to explore the novel environment is suppressed by the delivery of a mild foot shock every time the animal moves from one plate to another (referred to as a ‘punished crossing’). Following each punished crossing, there is a 3-second time out where the mouse may cross the plates without receiving another shock. An experimenter blind to the dosing conditions administers shocks, and a computer records the total number of punished crossings an animal makes during the testing period. Clinically effective classes of anxiolytic compounds such as benzodiazepines, selective serotonin reuptake inhibitors, or 5-HT1A […] produce increases in punished crossings, which is indicative of anxiolytic-like activity.
In each study, mice were given a single icv injection or two icv injections of test compounds or vehicle 20 minutes prior to the test session, and the number of punished crosses during the 1-minute test was recorded. For experiments where 2 icv injections were given, an animal received an injection in both the left and right ventricles, with the second injection given immediately after the first injection. A 26-gauge Hamilton syringe with 3-mm needle was used for injections and the injection site was visualized by locating the middle of the invisible line that runs diagonally from the left eye to the right ear. Mice were housed individually during the interval between injections and behavioral testing.
The mouse four-plate test was performed and statistical analyses conducted as described in Example 9.
In these studies, NBI-31772 and JB1, an IGF-1R antagonist, were administered centrally (icv) with the two injections occurring sequentially. Compounds were administered 20 minutes prior to testing and the number of punished crosses during the 1-minute test was recorded.

Swiss-Webster mice [2] = experiment: mouse tail suspension test (TST); type: in vivo; conditions: for immobility: 20 minutes prior to testing
Method: To assess the on potential antidepressant effects of NBI-31772, Swiss-Webster mice were analyzed using the Tail Suspension Test (TST). In this test, mice were suspended upside down by taping their tails with adhesive laboratory tape (VWR International of West Chester, Pa.) to a flat metal bar connected to a strain gauge within a sound-attenuating chamber (Med Associates Inc. of St. Albans, Vt.). The bar is positioned such that a mouse is not able to grasp the top or the sides of the chamber. The total time spent immobile during a 6-minute test session is automatically recorded. Compounds that decrease the total immobility time compared to control animals are predicted to have antidepressant-like effects. In each study, mice were given a single icv injection of test compound or vehicle 20 minute prior to the test session. Mice were housed individually during the interval between injection and behavioral testing.
One-way analysis of variance (ANOVA) was performed on behavioral data to determine effects of NBI-31772 treatment, followed by Least Significant Difference Tests for a post hoc analysis. The data is presented as the mean±SEM. […] This decrease in immobility indicates antidepressant-like effects similar to that seen with IGF-1.
The mouse tail suspension test was performed and statistical analyses conducted as described in Example 11.

IGFBP-1 to IGFBP-6 = conditions: cited from earlier work
IGFBP-2 = molecular target: T1, IGFBP-2 (Homo sapiens, UniProt P18065); conditions: cited from earlier work
T1 sequence (P18065 with tags, fused parts or gaps DUP19-21/R317C): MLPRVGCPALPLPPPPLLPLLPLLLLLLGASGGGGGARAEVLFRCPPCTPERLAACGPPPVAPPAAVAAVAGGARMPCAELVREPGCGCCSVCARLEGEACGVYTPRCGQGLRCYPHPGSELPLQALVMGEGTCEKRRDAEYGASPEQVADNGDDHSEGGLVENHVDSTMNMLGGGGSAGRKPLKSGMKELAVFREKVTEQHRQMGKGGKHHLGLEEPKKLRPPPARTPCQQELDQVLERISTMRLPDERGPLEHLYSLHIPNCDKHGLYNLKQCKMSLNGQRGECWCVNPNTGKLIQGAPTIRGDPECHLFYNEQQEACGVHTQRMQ

fibroblast = conditions: IGF-I released from binding protein complex; cited from earlier work
[3] = cited from earlier work
adult rat dentate gyrus = experiment: BrdU-positive cell proliferation in adult rat dentate gyrus after chronic icv infusion; type: in vivo; conditions: 10 days icv via minipump, sacrifice Day 11
Method: Previous investigators have shown that IGF-1 administered either intracerebroventricular (icv) or systemically increases proliferation and survival, and (Aberg, et al, 2000; Lichtenwalner et al, 2000). Furthermore, systemic IGF promotes neuronal differentiation. The present study confirms and extends these previous findings. Rats were given IGF-1 for 10 days via a cannula attached to a semiosmotic minipump. On Day 11, animals were sacrificed and quantitative analysis was performed to determine the number of BrdU-positive cells as a measure of cell proliferation. A 66% increase in BrdU-positive cells per hippocampus compared to saline-infused animals was observed (FIG. 10).

[4] = rats, subcutaneous deposition; cited from earlier work
IGF-I mRNA = experiment: microarray profiling of antidepressant-treated C6 glioma cell lines; type: cell-based; conditions: quiescent C6 glioma cell lines, 24 hours
Excerpt: Glial cell cultures were used because they lack endogenous serotonin and norepinephrine transporter mechanisms. Thus, any transcriptional effects caused by the antidepressant drugs are due to actions beyond the level of the serotonin and norepinephrine receptors and respective transporters. […] Antidepressant drugs may therefore be acting on the glia, which produces the neurotrophic factor IGF-I, which acts in a juxtacrine manner to stimulate neurogenesis.

IGFBP-2 mRNA = experiment: transcriptional profiling of amygdala of drug-treated rats; type: in vivo; conditions: rat amygdala
Excerpt: In the short-term 3 day treatment, it is possible that the drugs might exert their antidepressant effects through decreasing IGFBP-2 expression, which would increase bioavailability of IGF-I. The long-term treatment is of equivalent magnitude but in the opposite direction. This may represent a compensatory mechanism in response to the short-term drug effects.

Compound: O=C(O)c1cc2cc(O)c(O)cc2c(C(=O)c2ccc(O)c(O)c2)n1 [NBI-31772]
- increase in % time in the open arms compared to the vehicle group (Balb/C mice; 0.3 μg icv): 100%
- increase in % time in the open arms compared to the vehicle group (Balb/C mice; 1 μg icv): 100%
- increase in % time in the open arms compared to the vehicle group (Balb/C mice; 3 μg icv): 81%
- increase in % time in the open arms compared to the vehicle group (Balb/C mice; 10 μg icv): 119%
- % time spent in the open arms of the maze (Balb/C mice; 0.1-10 μg, icv, 20 minutes prior to testing): dose-dependent increase
- increase in punished crossings (Swiss-Webster mice [1]; 10 μg icv): 22%
- increase in punished crossings (Swiss-Webster mice [1]; 30 μg icv): 32%
- increase in punished crossings compared to vehicle group (Swiss-Webster mice [1]; 30 μg icv, two sequential icv injections study): 24%
- seizures, percentage of animals (Swiss-Webster mice [1]; 56 μg icv): 20%
- seizures, percentage of animals (Swiss-Webster mice [1]; 100 μg icv): 40%
- punished crossings (Swiss-Webster mice [1]; 3.0-30 μg, icv): dose-dependent increase
- punished crossings (Swiss-Webster mice [1]; higher doses 56 and 100 μg icv, not used for analysis): an increase in punished crossings was seen
- decrease in immobility (Swiss-Webster mice [2]; 3 μg icv): 32%
- decrease in immobility (Swiss-Webster mice [2]; 10 μg icv): 35%
- decrease in immobility (Swiss-Webster mice [2]; 30 μg icv): 38%
- immobility (Swiss-Webster mice [2]; 0.3-30 μg icv): dose-dependent decrease
- dissociation of IGF-I from its binding protein complex (IGFBP-1 to IGFBP-6): dissociates
- inhibition of 125I IGF-I binding / interaction of IGF-I with IGFBP-1 to 6 (IGFBP-1 to IGFBP-6): inhibits; also recorded: dose-dependent inhibition
- activity toward IGFBP-2 compared to the other five IGFBPs (IGFBP-2): highest activity
- biological activity of the released IGF-I (fibroblast): biologically active

Compound: complex of IGF-I and IGFBP-3: dimeric complex of IGF-I and IGFBP-3 in serum
- serum half-life [3]: 30 min

Compound: IGF-1: recombinant human IGF-1, insulin-like growth factor, available from Bachem Biosciences
- increase in punished crossings from vehicle (Swiss-Webster mice [1]; 0.01 μg dose, central administration): 32%
- effects in the four-plate test (FIG. 13) (Swiss-Webster mice [1]; 0.1 μg): anxiolytic-like effects
- punished crossings (Swiss-Webster mice [1]; 0.03-1.0 μg, central administration 20 minutes prior to testing): significant overall effect
- decrease in immobility from vehicle (Swiss-Webster mice [2]; 10 μg dose): 33%
- immobility (Swiss-Webster mice [2]; 1-10 μg): dose-dependent decrease
- increase in BrdU-positive cells per hippocampus compared to saline-infused animals (adult rat dentate gyrus): 66%
- inhibition of 125I IGF-I binding / interaction of IGF-I with IGFBP-1 to 6 (IGFBP-1 to IGFBP-6): dose-dependent inhibition
- serum half-life [3]: 10 min
- concentrations in the CNS relative to those in the serum [4]: about 0.5%
- plasma concentrations at which uptake into CSF reached a plateau [4]: above 150 ng/ml

Compound: COc1ccc(C(CN(C)C)C2(O)CCCCC2)cc1 (stereo not shown) [venlafaxine]
- expression of IGF-I mRNA (IGF-I mRNA): increased expression

Compound: Fc1ccc([C@@H]2CCNC[C@H]2COc2ccc3c(c2)OCO3)cc1 [Paroxetine]
- expression of IGFBP-2 mRNA compared to vehicle alone (IGFBP-2 mRNA; 3 day treatment): decreased expression
- expression of IGFBP-2 mRNA compared to vehicle alone (IGFBP-2 mRNA; 14 day treatment): increased expression

Compound: CNCCCN1c2ccccc2CCc2ccccc21 [desipramine]
- expression of IGF-I mRNA (IGF-I mRNA): increased expression

Compound: CNCCC(Oc1ccc(C(F)(F)F)cc1)c1ccccc1 (stereo not shown) [fluoxetine]
- expression of IGF-I mRNA (IGF-I mRNA): increased expression

Compound: O=C1CC2(CCCC2)CC(=O)N1CCCCN1CCN(c2ncccn2)CC1 [Buspirone]
- expression of IGFBP-2 mRNA compared to vehicle alone (IGFBP-2 mRNA; 3 day treatment): decreased expression
- expression of IGFBP-2 mRNA compared to vehicle alone (IGFBP-2 mRNA; 14 day treatment): increased expression

Compound: C[C@]12CC[C@H]3[C@@H](CC[C@@H]4C[C@@](O)(C(F)(F)F)CC[C@@H]43)[C@@H]1CC[C@@H]2C(=O)CO [GMA-839]
- expression of IGFBP-2 mRNA compared to vehicle alone (IGFBP-2 mRNA; 3 day treatment): decreased expression
- expression of IGFBP-2 mRNA compared to vehicle alone (IGFBP-2 mRNA; 14 day treatment): increased expression
